# Laboratory results published in ChEMBL document CHEMBL5543100 (Eur J Med Chem, 2024).
# System: OS-RC-2
# Assay: cells
# Details: Homo sapiens, OS-RC-2, 48 h
# Description: Antiproliferative activity against human OS-RC-2 cells assessed as inhibition of cell growth incubated for 48 hrs
compound,measurement,value
CNC(=O)c1cc(Oc2ccc(NC(=O)Nc3ccc(Cl)c(C(F)(F)F)c3)cc2)ccn1 [SORAFENIB],IC50,~9 µM
